# Test results as given in patent US20120003156A1, “METHODS FOR TREATING NEOPLASIA BY INHIBITING LACTATE DEHYDROGENASE AND/OR NICOTINAMIDE PHOSPHORIBOSYLTRANSFERASE” (The Johns Hopkins University, priority 2008, published 2012).
# “Also recorded” adds a separate entry of the source.
# Assays:
# P493 cells [1] = assay: ROS measurement by DCFDA flow cytometry; type: cell-based, human; settings: 9 μM FX11 or FK866, 24 hours
# Experimental: The measurement of intracellular ROS production was measured by staining cells with 5-(and-6)-carboxy-2′,7′-dichlorodihydrofluorescein diacetate (carboxy-H2DCFDA; Molecular Probes) according to the manufacturer's instructions. 10^5 cells/ml were treated with 9 μM FX11 or FK866 for 24 hours. Stained cells were analyzed in FACScan flow cytometers (BD Bioscience).
# P493 cells [2] = assay: Conversion of 13C-glucose to 13C-lactate; type: cell-based, human
# Experimental: In addition to oxidative stress induced by inhibition of LDHA, it was determined how FX11 affects cellular energy metabolism. […].
# [3] = test system: Ramos Burkitt lymphoma cells; assay: Cell population growth; type: cell-based, human
# [4] = molecular target: purified human liver LDHA (Homo sapiens, UniProt P00338); assay: Determination of Ki and enzyme kinetics of LDHA; settings: NADH as substrate; Lineweaver-Burk plots
# Experimental: The reaction velocity of purified human LDHA or GAPDH was determined by a decrease or increase in absorbance at 340 nm of NADH, respectively. […] The GADPH activity was assessed using the protocol described in Worthington Enzyme Manual: http://www.worthington-biochem.com/GAPD/assay.html with varying concentrations of NAD^+. Ki values were determined from double-reciprocal plots by linear regression analysis using SigmaPlot Enzyme Kinetic software.
# P493 cells [5] = assay: Mitochondrial membrane potential by JC-1 flow cytometry; type: cell-based, human; settings: 9 μM FX11 or/and FK866, 24 hours
# Source text: The lipophilic cation dye (5,5′,6,6′-tetrachloro-1,1′,3,3′-tetraethylbenzimidazolcarbocyanine iodide, JC-1) (Invitrogen) was used to detect the loss of the mitochondrial membrane potential. The negative charge established by the intact mitochondrial membrane potential lets the lipophilic dye stain the mitochondria bright red which emits in channel 2 (FL2). When the mitochondrial membrane potential collapses, JC-1 remains in the cytoplasm in a green fluorescent monomeric emission in channel 1 (FL1). JC-1 reversibly changes its color from green to orange as membrane potentials increase (over values of 80-100 mV). 10^5 cells/ml were treated with 9 μM FX11 or/and FK866 for 24 hours. Stained cells were analyzed in FACScan flow cytometers (BD Bioscience).
# [6] = test system: P198 human pancreatic cancer cells; assay: Cell population growth; type: cell-based; settings: 1% O2 vs normoxia
# Experimental: (§1) P493 human lymphoma B cells were maintained in RPMI 1640 with 10% fetal bovine serum (FBS) and 1% penicillin-streptomycin. P198 human pancreatic cancer cells; RCC4, RCC4-VHL human renal carcinoma cells; MCF-7 and MDA-MB-453 breast cancer cells were maintained in high glucose (4.5 mg/ml) DMEM with 10% FBS and 1% penicillin-streptomycin. Non-hypoxic cells (20% O2) were maintained at 37° C. in a 5% CO2, 95% in an air incubator. Hypoxic cells (1% O2) were maintained in a controlled atmosphere chamber (PLAS-LABS, Lansing, Mich.) with a gas mixture containing 1% O2, 5% CO2, and 94% N2 at 37° C. for the indicated time. Bright live cells were counted daily in a hemacytometer using trypan blue dye to exclude dead cells. All cells were grown at a concentration of 10^5 cells/ml. All drugs treatment began at day 0.
# siRNAs targeting human LDHA (ON-TARGETplus SMARTpool) were purchased from Dharmacon Research Inc. Targeting sequences for LDHA were a pool of the following four target sequences: sequence 1, […]; sequence 2, […]; sequence 3, […]; sequence 4, […]. Accordingly, one of skill in the art would recognize the siRNA sequences corresponding to these targets. For P493 human lymphoma B cells, transfection of siRNAs was performed using an Amaxa Nucleotransfection device according to the manufacturer's instructions. […]
# P493 cells [7] = assay: Annexin V / 7-AAD cell death assay; type: cell-based, human; settings: 24 hours of FX11 treatment
# [8] = test system: P493 human lymphoma B cells; assay: Cell population growth, trypan blue live cell count; type: cell-based
# Experimental: as §1
# siRNAs targeting human LDHA (ON-TARGETplus SMARTpool) were purchased from Dharmacon Research Inc. Targeting sequences for LDHA were a pool of the following four target sequences: sequence 1, […]; sequence 2, […]; sequence 3, […]; sequence 4, […]. Accordingly, one of skill in the art would recognize the siRNA sequences corresponding to these targets. For P493 human lymphoma B cells, transfection of siRNAs was performed using an Amaxa Nucleotransfection device according to the manufacturer's instructions. Briefly, 2 μg siLDHA ON-TARGETplus SMARTpool or ON-TARGETplus Non-targeting Pool (Dharmacon Research Inc.) were transfected into 2×10^6 cells at 0 hours. […]. The remaining cells were harvested for immunoblot analysis. For P198 human pancreatic cancer cells, transfection of siRNAs was performed using X-tremeGENE siRNA Transfection Reagent (Roche) according to the manufacturer's instructions.
# P493 cells [9] = assay: Oxygen consumption, Clark-type oxygen electrode; type: cell-based, human; settings: FX11 treatment
# Experimental: Oxygen consumption was measured using a Clark-type oxygen electrode (Oxytherm System, Hansatech Instruments Ltd). 5×10^6 cells in 1 ml medium were placed in the chamber above a membrane which is permeable to oxygen. Oxygen diffuses through the membrane and is reduced at the cathode surface so that a current flows through the circuit which is completed by a thin layer of KCl solution. The current which is generated bears a direct, stoichiometric relationship to the oxygen reduced, and is converted to a digital signal. Determinations were done in triplicate, and the entire experiment was done twice.
# [10] = Side effects, hematology and blood chemistry in treated animals
structure (smiles),measurement,setting,value
"CCCc1c(O)c(O)c(C(=O)O)c2cc(Cc3ccccc3)c(C)cc12 [FX11, 2,3-dihydroxy-6-methyl-7-(phenylmethyl)-4-propylnaphthalene-1-carboxylic acid]",ROS production,P493 cells [1],increased
same,13C-glutamate,P493 cells [2],increase
same,conversion of 13C-glucose to 13C-lactate,P493 cells [2],reduced
same,cell population growth inhibition,[3],sensitive to FX11 inhibition in a manner that is diminished by glucose withdrawal; also recorded: dose-dependent manner
same,mode of inhibition of LDHA,[4],competitive inhibitors; also recorded: competitive inhibitor of NADH
same,mitochondrial membrane potential,P493 cells [5],decreased
same,effect of hypoxia on inhibition of P198 cells by FX11,[6],sensitized
same,cell death (7-AAD and annexin V labeling),P493 cells [7],increased
same,growth inhibition at 1% O2 compared with normoxia,[8]; 9 μM FX11,increased
same,proliferative rate of P493 cells with siRNA knock-down of LDHA,[8]; 9 μM FX11,not further slowed
same,inhibition of P493 cells in the absence of glucose,[8]; glucose-depleted medium,could not inhibit P493 cells further
same,"inhibition of P493 cells, dose-response",[8]; normoxia (20% O2) and hypoxia (1% O2),dose-dependent manner that was augmented in hypoxia
same,proliferation of P493 cells,[8]; single agent,diminished proliferation
same,oxygen consumption,P493 cells [9],increased oxygen consumption
same,"kidney (BUN, creatinine) or liver (aspartate aminotransferase, alanine aminotransferase, alkaline phosphatase) toxicity by blood chemistries",[10]; doses that affected tumor growth in vivo,did not reveal any evidence
same,hematology (cytopenia),"[10]; single agent, five animals studied",no cytopenia
same,body weight,[10]; treated animals,did not lose weight
same,"lethargy, ability to eat and drink",[10]; treated animals,no lethargy or the inability to eat and drink
